Assay results taken from patent US10519134B2, “Pyrazole compounds and methods of making and using same” (Lundbeck La Jolla Research Center, Inc., priority 2015, dated 2019).
pIC50: −log10 of the molar value.

How the values were obtained:
MAGL [1] = target: T1, MAGL (Mus musculus, UniProt O35678); test: In vitro competitive activity-based protein profiling (mouse), MAGL gel band; type: biochemical; conditions: for pIC50: mouse; for inhibition at 1 µM: read-out: MAGL % inh. 1 μM
T1 construct: Proteomes (mouse brain membrane fraction or cell lysates); from tissue; host or cells: mouse brain membrane fraction (or cell lysates)
T1 sequence (O35678 1-303): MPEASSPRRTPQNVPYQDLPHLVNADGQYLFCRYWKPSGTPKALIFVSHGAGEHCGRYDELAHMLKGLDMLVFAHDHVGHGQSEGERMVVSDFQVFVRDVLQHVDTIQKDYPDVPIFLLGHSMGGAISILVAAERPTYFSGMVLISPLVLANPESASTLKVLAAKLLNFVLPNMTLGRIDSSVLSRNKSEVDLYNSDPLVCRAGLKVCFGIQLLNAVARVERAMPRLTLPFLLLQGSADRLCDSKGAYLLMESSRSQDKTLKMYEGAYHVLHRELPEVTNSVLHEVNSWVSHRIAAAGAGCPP
Summary of the method: (§1)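 Mouse brain membrane proteome or cell lysate (1.0 mg/mL total protein) was preincubated with varying inhibitor concentrations for 30 min at 37 °C, then labelled for 30 min at 37 °C with FP-Rh or HT-01 (50 μM stock in DMSO). Activity was read as fluorescent band intensity after SDS-PAGE.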

FAAH = target: T2, FAAH (Mus musculus, UniProt O08914); test: In vitro competitive activity-based protein profiling (mouse), FAAH gel band; type: biochemical; conditions: for pIC50: mouse; for inhibition at 1 µM: read-out: FAAH % inh. 1 μM
T2 construct: Proteomes (mouse brain membrane fraction or cell lysates); from tissue; host or cells: mouse brain membrane fraction (or cell lysates)
T2 sequence (O08914 1-579): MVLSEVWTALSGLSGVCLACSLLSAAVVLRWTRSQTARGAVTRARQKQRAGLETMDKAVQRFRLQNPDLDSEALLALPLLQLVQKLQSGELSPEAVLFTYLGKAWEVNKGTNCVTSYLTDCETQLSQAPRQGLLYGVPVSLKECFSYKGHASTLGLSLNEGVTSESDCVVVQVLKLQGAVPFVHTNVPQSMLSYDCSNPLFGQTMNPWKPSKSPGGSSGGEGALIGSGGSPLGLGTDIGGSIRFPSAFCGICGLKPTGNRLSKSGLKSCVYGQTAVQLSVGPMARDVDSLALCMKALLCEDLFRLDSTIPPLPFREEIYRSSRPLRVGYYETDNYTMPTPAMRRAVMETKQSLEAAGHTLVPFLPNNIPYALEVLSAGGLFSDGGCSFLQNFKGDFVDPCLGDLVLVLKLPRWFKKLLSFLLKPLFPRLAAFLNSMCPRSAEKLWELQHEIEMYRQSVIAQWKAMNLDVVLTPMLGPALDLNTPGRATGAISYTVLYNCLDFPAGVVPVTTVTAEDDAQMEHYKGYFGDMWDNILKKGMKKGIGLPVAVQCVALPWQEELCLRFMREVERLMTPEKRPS
Summary of the method: as §1

MAGL [2] = target: T1, MAGL; test: Mouse brain proteomes from inhibitor treated mice (oral gavage, sacrificed 4 h after administration); type: in vivo; conditions: read-out: MAGL % inh. 5 mg/kg
Method: Compounds are tested to assess their MAGL and other serine hydrolase activity using the following in vitro and in vivo assays.
Preparation of Mouse Brain Proteomes from Inhibitor Treated Mice.
Inhibitors were administered to wild-type C57Bl/6J by oral gavage in a vehicle of polyethylene glycol. Each animal was sacrificed 4 h following administration and brain proteomes were prepared and analyzed according to previously established methods (See Niphakis, M. J., et al. (2011) ACS Chem. Neurosci. and Long, J. Z., et al. Nat. Chem. Biol. 5:37-44)

Compound	pIC50 (MAGL [1])	inhibition at 1 µM (MAGL [1]) [%]	pIC50 (FAAH)	inhibition at 1 µM (FAAH) [%]	inhibition at 5 mg/kg (MAGL [2]) [%]
CC(=O)Nc1ccn(C(=O)N2CCN(Cc3ccc(C(F)(F)F)cc3N3CCCC3)CC2)n1 [Example 1, N-(1-(4-(2-(pyrrolidin-1-yl)-4-(trifluoromethyl)benzyl)piperazine-1-carbonyl)-1H-pyrazol-3-yl)acetamide]	≥ 7.00	≥ 75	5.00 to 6.00	0 to 25	≥ 75
CS(=O)(=O)Nc1ccn(C(=O)N2CCN(Cc3ccc(Cl)cc3N3CCCC3)CC2)n1 [Example 127, N-(1-(4-(4-chloro-2-(pyrrolidin-1-yl)benzyl)piperazine-1-carbonyl)-1H-pyrazol-3-yl) methanesulfonamide]	≥ 7.00	≥ 75	5.00 to 6.00	0 to 25	≥ 75
CC(=O)Nc1ccn(C(=O)N2CCC3(CCCN3Cc3ccc(Cl)c(N4CCCC4)c3)CC2)n1 [Example 104, N-(1-(1-(4-chloro-3-(pyrrolidin-1-yl)benzyl)-1,8-diazaspiro[4.5]decane-8-carbonyl)-1H-pyrazol-3-yl)acetamide]	≥ 7.00	≥ 75	5.00 to 6.00	0 to 25	0 to 25
CC(=O)Nc1ccn(C(=O)N2CCC3(CCCN3Cc3cc(Oc4cncnc4)cc(C(F)(F)F)c3)CC2)n1 [Example 84, N-(1-(1-(3-(pyrimidin-5-yloxy)-5-(trifluoromethyl)benzyl)-1,8-diazaspiro[4.5]decane-8-carbonyl)-1H-pyrazol-3-yl)acetamide]	≥ 7.00	≥ 75	5.00 to 6.00	0 to 25	0 to 25
CC(=O)Nc1ccn(C(=O)N2CCC3(CCCN3Cc3ccc(C(F)(F)F)cc3Oc3nc4ccccc4s3)CC2)n1 [Example 85, N-(1-(1-(2-(benzo[d]thiazol-2-yloxy)-4-(trifluoromethyl)benzyl)-1,8-diazaspiro[4.5]decane-8-carbonyl)-1H-pyrazol-3-yl)acetamide]	≥ 7.00	≥ 75	5.00 to 6.00	0 to 25	0 to 25
CC(=O)Nc1ccn(C(=O)N2CCN(Cc3ccc(C(F)(F)F)cc3N3CCC4(C3)CN(S(C)(=O)=O)C4)CC2)n1 [Example 44, N-(1-(4-(2-(2-(methylsulfonyl)-2,6-diazaspiro[3.4]octan-6-yl)-4-(trifluoromethyl)benzyl)piperazine-1-carbonyl)-1H-pyrazol-3-yl)acetamide]	≥ 7.00	≥ 75	5.00 to 6.00	0 to 25	0 to 25
CC(=O)Nc1ccn(C(=O)N2CCN(Cc3ccc(C(F)(F)F)cc3N3CC4CCC(C3)O4)CC2)n1 [Example 40, N-(1-(4-(2-(8-oxa-3-azabicyclo[3.2.1]octan-3-yl)-4-(trifluoromethyl)benzyl)piperazine-1-carbonyl)-1H-pyrazol-3-yl)acetamide]	≥ 7.00	≥ 75	5.00 to 6.00	0 to 25	25 to 50
CC(=O)Nc1ccn(C(=O)N2CCC3(CCCN3Cc3ccc(Cl)cc3N3CC4CCC(C3)O4)CC2)n1 [Example 34, N-(1-(1-(2-(8-oxa-3-azabicyclo[3.2.1]octan-3-yl)-4-chlorobenzyl)-1,8-diazaspiro[4.5]decane-8-carbonyl)-1H-pyrazol-3-yl)acetamide]	≥ 7.00	≥ 75	5.00 to 6.00	0 to 25	0 to 25
CS(=O)(=O)Nc1ccn(C(=O)N2CCC3(CCCN3Cc3ccc(C(F)(F)F)c(Cl)c3)CC2)n1 [Example 161, N-(1-(1-(3-chloro-4-(trifluoromethyl)benzyl)-1,8-diazaspiro[4.5]decane-8-carbonyl)-1H-pyrazol-3-yl) methanesulfonamide]	–	≥ 75	–	0 to 25	0 to 25
CC(=O)Nc1ccn(C(=O)N2CCN(Cc3cc(OCC(=O)N4CCCC4)cc(C(F)(F)F)c3)CC2)n1 [Example 80, N-(1-(4-(3-(2-oxo-2-(pyrrolidin-1-yl)ethoxy)-5-(trifluoromethyl)benzyl)piperazine-1-carbonyl)-1H-pyrazol-3-yl)acetamide]	≥ 7.00	≥ 75	5.00 to 6.00	0 to 25	0 to 25
CC(=O)Nc1ccn(C(=O)N2CCC3(CCCN3Cc3ccc(C(F)(F)F)cc3N3CCOCC3)CC2)n1 [Example 10, N-(1-(1-(2-morpholino-4-(trifluoromethyl)benzyl)-1,8-diazaspiro[4.5]decane-8-carbonyl)-1H-pyrazol-3-yl)acetamide]	≥ 7.00	≥ 75	5.00 to 6.00	0 to 25	0 to 25
CC(=O)Nc1ccn(C(=O)N2CCN(Cc3ccc(Cl)cc3-c3nnn[nH]3)CC2)n1 [Example 262, N-(1-(4-(4-chloro-2-(1H-tetrazol-5-yl)benzyl)piperazine-1-carbonyl)-1H-pyrazol-3-yl)acetamide]	≥ 7.00	≥ 75	5.00 to 6.00	0 to 25	0 to 25
CC(=O)Nc1ccn(C(=O)N2CCN(Cc3ccc(C(F)(F)F)cc3N3CCN(C(C)=O)CC3)CC2)n1 [Example 42, N-(1-(4-(2-(4-acetylpiperazin-1-yl)-4-(trifluoromethyl)benzyl)piperazine-1-carbonyl)-1H-pyrazol-3-yl)acetamide]	≥ 7.00	≥ 75	5.00 to 6.00	0 to 25	0 to 25
CC(=O)Nc1ccn(C(=O)N2CCC3(CCCN3Cc3ccc(C(F)(F)F)cc3N3CCC(F)CC3)CC2)n1 [Example 12, N-(1-(1-(2-(4-fluoropiperidin-1-yl)-4-(trifluoromethyl)benzyl)-1,8-diazaspiro[4.5]decane-8-carbonyl)-1H-pyrazol-3-yl)acetamide]	≥ 7.00	≥ 75	5.00 to 6.00	0 to 25	0 to 25
CC(=O)Nc1ccn(C(=O)N2CCC3(CCCN3Cc3ccc(Cl)cc3N3CCC4(CC3)CCN(S(C)(=O)=O)C4)CC2)n1 [Example 37, N-(1-(1-(4-chloro-2-(2-(methylsulfonyl)-2,8-diazaspiro[4.5]decan-8-yl)benzyl)-1,8-diazaspiro[4.5]decane-8-carbonyl)-1H-pyrazol-3-yl)acetamide]	≥ 7.00	≥ 75	5.00 to 6.00	0 to 25	0 to 25
CC(=O)Nc1ccn(C(=O)N2CCC3(CCCN3Cc3ccc(Cl)cc3N3CCC4(C3)CN(S(C)(=O)=O)C4)CC2)n1 [Example 38, N-(1-(1-(4-chloro-2-(2-(methylsulfonyl)-2,6-diazaspiro[3.4]octan-6-yl)benzyl)-1,8-diazaspiro[4.5]decane-8-carbonyl)-1H-pyrazol-3-yl)acetamide]	≥ 7.00	≥ 75	5.00 to 6.00	0 to 25	0 to 25
CC(=O)Nc1ccn(C(=O)N2CCN(Cc3cc(OC4CCS(=O)(=O)CC4)cc(C(F)(F)F)c3)CC2)n1 [Example 78, N-(1-(4-(3-((1,1-dioxidotetrahydro-2H-thiopyran-4-yl)oxy)-5-(trifluoromethyl)benzyl)piperazine-1-carbonyl)-1H-pyrazol-3-yl)acetamide]	≥ 7.00	≥ 75	5.00 to 6.00	0 to 25	0 to 25
CC(=O)Nc1ccn(C(=O)N2CCN(Cc3ccc(C(F)(F)F)cc3OC3CCN(C4CC4)CC3)CC2)n1 [Example 71, N-(1-(4-(2-(1-cyclopropylpiperidin-4-yloxy)-4-(trifluoromethyl)benzyl)piperazine-1-carbonyl)-1H-pyrazol-3-yl)acetamide]	≥ 7.00	≥ 75	5.00 to 6.00	0 to 25	25 to 50
